Assay results taken from ChEMBL document CHEMBL5053545, “Iterative Structure-Based Optimization of Short Peptides Targeting the Bacterial Sliding Clamp” (J Med Chem, 2021).
*1 amine or outer side, *2 acyl side, *3 side chain or, on linkers, in order; H or OH if unused. Where a SMILES comes first, the peptide text is derived from it. [ ]: non-standard residue; d: D form. The star is where a group is joined. N(3-imidazol-1-ylpropyl)Gly = O=C(O)CNCCCn1ccnc1; NEtAsp = CCN([C@@H](CC(=O)[*:3])C(=O)[*:2])[*:1]; Acryloyl(3-(3-pyridyl),E) = O=C(/C=C/c1cccnc1)*; Gly(N-3-morpholinopropyl) = O=C(O)CNCCCN1CCOCC1; Phe(3,4-Cl2) = N[C@@H](Cc1ccc(Cl)c(Cl)c1)C(=O)O; Phe(3,4-F2) = N[C@@H](Cc1ccc(F)c(F)c1)C(=O)O; Oic = O=C(O)[C@@H]1C[C@@H]2CCCC[C@@H]2N1; Cinnamoyl(4-F) = O=C(/C=C/c1ccc(F)cc1)*; NMeCha = CN[C@@H](CC1CCCCC1)C(=O)O; Hydrocinnamoyl = O=C(CCc1ccccc1)*; NH(4-MeO-phenyl) = COc1ccc(N*)cc1; NMeR = CN[C@@H](CCCNC(=N)N)C(=O)O; X2 = O=C(CN(Cc1ccccn1)[*:1])[*:2]; NMeF = CN[C@@H](Cc1ccccc1)C(=O)O; X3 = CN(C)/C(=N\CC(=O)*)N1CCOCC1; NFurfurylGly = O=C(O)CNCc1ccco1; NMeQ = CN[C@@H](CCC(N)=O)C(=O)O; Cha = N[C@@H](CC1CCCCC1)C(=O)O; NMeD = CN[C@@H](CC(=O)O)C(=O)O; NMeL = CN[C@@H](CC(C)C)C(=O)O; X5 = CN(C)C(=NCC(=O)*)N(C)C; Pip = O=C(O)[C@@H]1CCCCN1; X4 = NC[C@H](Cc1ccccc1)N*; CO = O=C([*:1])[*:2]

Assays:
Escherichia coli [1] = assay: Binding affinity to Escherichia coli sliding clamp assessed as dissociation rate constant by ITC analysis
[2] = Binding affinity to Escherichia coli sliding clamp assessed as dissociation constant by ITC analysis
Escherichia coli [3] = assay: Binding affinity to Escherichia coli sliding clamp assessed as gibbs free energy change by ITC analysis
Escherichia coli [4] = assay: Binding affinity to Escherichia coli sliding clamp assessed as association rate constant by ITC analysis

| SMILES | K (Escherichia coli [1]) | Kd [2] | deltaG (Escherichia coli [3]) | K (Escherichia coli [4]) |
| --- | --- | --- | --- | --- |
| CC(=O)N[C@@H](CCC(N)=O)C(=O)N[C@@H](CC1CCCCC1)C(=O)N(C)[C@@H](CC(=O)O)C(=O)N[C@@H](CC(C)C)C(=O)N[C@@H](Cc1ccccc1)C(=O)O (Ac-Q[Cha][NMeD]LF-OH) | 1.9 10^-2/s | 114 nM | -9.5 kcal/mol | 2.1 10^4/M/s |
| CCN(C(=O)[C@H](CC1CCCCC1)NC(=O)[C@H](CCC(N)=O)NC(C)=O)[C@@H](CC(=O)O)C(=O)N[C@@H](CC(C)C)C(=O)N[C@@H](Cc1ccccc1)C(=O)O (Ac-Q[Cha][NEtAsp]LF-OH) | 1.3 10^-2/s | 523 nM | -8.6 kcal/mol | 2.9 10^4/M/s |
| CC(=O)N(C)[C@@H](CCCNC(=N)N)C(=O)N[C@@H](CCC(N)=O)C(=O)N[C@@H](CC1CCCCC1)C(=O)N[C@@H](CC(=O)O)C(=O)N[C@@H](CC(C)C)C(=O)N[C@@H](Cc1ccccc1)C(=O)O (Ac-[NMeR]Q[Cha]DLF-OH) | 2.9 10^-2/s | 2130 nM | -7.7 kcal/mol | 2.1 10^4/M/s |
| COc1ccc(NC(=O)N[C@@H](CCC(N)=O)C(=O)N[C@@H](CC2CCCCC2)C(=O)N[C@@H](CC(=O)O)C(=O)N[C@@H](CC(C)C)C(=O)N[C@@H](Cc2ccccc2)C(=O)O)cc1 ({NH(4-MeO-phenyl)-CO}-Q[Cha]DLF-OH) | 2.8 10^-3/s | 73 nM | -9.8 kcal/mol | 4 10^4/M/s |
| CC(=O)N(C)[C@@H](CCC(N)=O)C(=O)N[C@@H](CC1CCCCC1)C(=O)N[C@@H](CC(=O)O)C(=O)N[C@@H](CC(C)C)C(=O)N[C@@H](Cc1ccccc1)C(=O)O (Ac-[NMeQ][Cha]DLF-OH) | 4.6 10^-2/s | > 1000 nM | -7.7 kcal/mol | 2.1 10^4/M/s |
| CC(=O)N[C@@H](CCCNC(=N)N)C(=O)N[C@@H](CCC(N)=O)C(=O)N[C@@H](CC1CCCCC1)C(=O)N(C)[C@@H](CC(=O)O)C(=O)N[C@@H](CC(C)C)C(=O)N[C@@H](Cc1ccc(Cl)c(Cl)c1)C(=O)O (Ac-RQ[Cha][NMeD]L[Phe(3,4-Cl2)]-OH) | 2.1 10^-2/s | 278 nM | -8.9 kcal/mol | 7.6 10^4/M/s |
| CC(C)C[C@H](NC(=O)[C@H](CC(=O)O)NC(=O)[C@H](CC1CCCCC1)NC(=O)[C@H](CCC(N)=O)NC(=O)CN=C(N(C)C)N(C)C)C(=O)N[C@@H](Cc1ccccc1)C(=O)O (X5-Q[Cha]DLF-OH) | 1.1 10^-2/s | 353 nM | -8.7 kcal/mol | 3.4 10^4/M/s |
| CC(=O)N[C@@H](CCC(N)=O)C(=O)N[C@@H](CC1CCCCC1)C(=O)N[C@@H](CC(=O)O)C(=O)N(C)[C@@H](CC(C)C)C(=O)N[C@@H](Cc1ccccc1)C(=O)O (Ac-Q[Cha]D[NMeL]F-OH) | – | > 1000 nM | -5.2 kcal/mol | – |
| CC(=O)N[C@@H](CCC(N)=O)C(=O)N[C@@H](CC1CCCCC1)C(=O)N(C)[C@@H](CC(=O)O)C(=O)N[C@@H](CC(C)C)C(=O)N[C@@H](Cc1ccc(Cl)c(Cl)c1)C(=O)O (Ac-Q[Cha][NMeD]L[Phe(3,4-Cl2)]-OH) | 1 10^-2/s | 41 nM | -10.1 kcal/mol | 2.7 10^5/M/s |
| COc1ccc(NC(=O)N[C@@H](CCC(N)=O)C(=O)N[C@@H](CC2CCCCC2)C(=O)N(C)[C@@H](CC(=O)O)C(=O)N[C@@H](CC(C)C)C(=O)N[C@@H](Cc2ccc(Cl)c(Cl)c2)C(=O)O)cc1 ({NH(4-MeO-phenyl)-CO}-Q[Cha][NMeD]L[Phe(3,4-Cl2)]-OH) | 1.1 10^-3/s | 266 nM | -9 kcal/mol | 4.2 10^4/M/s |
| CC(C)C[C@H](NC(=O)[C@H](CC(=O)O)NC(=O)[C@H](CC1CCCCC1)NC(=O)[C@H](CCC(N)=O)NC(=O)CCc1ccccc1)C(=O)N[C@@H](Cc1ccccc1)C(=O)O (Hydrocinnamoyl-Q[Cha]DLF-OH) | 6.7 10^-3/s | 123 nM | -9.1 kcal/mol | 5.5 10^4/M/s |
| CC(=O)N[C@@H](CCC(N)=O)C(=O)N[C@@H](CC1CCCCC1)C(=O)N[C@@H](CC(=O)O)C(=O)N[C@@H](CC(C)C)C(=O)N[C@H](CN)Cc1ccccc1 (Ac-Q[Cha]DL-X4) | 1.1 10^-2/s | 877 nM | -8.27 kcal/mol | 1.2 10^4/M/s |
| CC(=O)N[C@@H](CCC(N)=O)C(=O)N[C@@H](CC1CCCCC1)C(=O)N[C@@H](CC(=O)O)C(=O)N[C@@H](CC(C)C)C(=O)N(C)[C@@H](Cc1ccccc1)C(=O)O (Ac-Q[Cha]DL[NMeF]-OH) | 5.4 10^-2/s | > 1000 nM | -7.1 kcal/mol | 1 10^4/M/s |
| CC(=O)N[C@@H](CCC(N)=O)C(=O)N[C@@H](CC1CCCCC1)C(=O)N[C@@H](CC(=O)O)C(=O)N[C@@H](CC(C)C)C(=O)NCC(=O)N[C@@H](CC(C)C)C(=O)O (Ac-Q[Cha]DLGL-OH) | 1.7 10^-2/s | 682 nM | -8.4 kcal/mol | 2.6 10^4/M/s |
| CC(=O)N[C@@H](CCC(N)=O)C(=O)N[C@@H](CC1CCCCC1)C(=O)N[C@@H](CC(=O)O)C(=O)N[C@@H](CC(C)C)C(=O)N1CCCC[C@H]1C(=O)N[C@@H](CC(C)C)C(=O)O (Ac-Q[Cha]DL[Pip]L-OH) | 1 10^-2/s | 243 nM | -9 kcal/mol | 4.3 10^4/M/s |
| CC(=O)N[C@@H](CCC(N)=O)C(=O)N[C@@H](CC1CCCCC1)C(=O)N[C@@H](CC(=O)O)C(=O)N[C@@H](CC(C)C)C(=O)N1CCC[C@H]1C(=O)N[C@@H](CC(C)C)C(=O)O (Ac-Q[Cha]DLPL-OH) | 1.1 10^-2/s | 182 nM | -9.2 kcal/mol | 5.7 10^4/M/s |
| CC(=O)N[C@@H](CCC(N)=O)C(=O)N[C@@H](CC1CCCCC1)C(=O)N(C)[C@@H](CC(=O)O)C(=O)N[C@@H](CC(C)C)C(=O)N[C@@H](Cc1ccc(F)c(F)c1)C(=O)O (Ac-Q[Cha][NMeD]L[Phe(3,4-F2)]-OH) | 8.4 10^-3/s | 148 nM | -9.3 kcal/mol | 5.6 10^4/M/s |
| CC(=O)N[C@@H](CCC(N)=O)C(=O)N[C@@H](CC1CCCCC1)C(=O)N[C@@H](CC(=O)O)C(=O)N[C@@H](CC(C)C)C(=O)N1CCC[C@H]1C(=O)N[C@@H](Cc1ccccc1)C(=O)O (Ac-Q[Cha]DLPF-OH) | 5 10^-3/s | 81 nM | -9.7 kcal/mol | 6 10^4/M/s |
| CC(C)C[C@H](NC(=O)[C@H](CC(=O)O)N(C)C(=O)[C@H](CC1CCCCC1)NC(=O)[C@H](CCC(N)=O)NC(=O)/C=C/c1ccc(F)cc1)C(=O)N[C@@H](Cc1ccc(F)c(F)c1)C(=O)O ({Cinnamoyl(4-F)}-Q[Cha][NMeD]L[Phe(3,4-F2)]-OH) | 5.7 10^-3/s | 99 nM | -9.6 kcal/mol | 5.1 10^4/M/s |
| CC(=O)N[C@@H](CCC(N)=O)C(=O)N[C@@H](CC1CCCCC1)C(=O)N(C)[C@@H](CC(=O)O)C(=O)N[C@@H](CC(C)C)C(=O)N1CCC[C@H]1C(=O)N[C@@H](Cc1ccc(Cl)c(Cl)c1)C(=O)O (Ac-Q[Cha][NMeD]LP[Phe(3,4-Cl2)]-OH) | 7.9 10^-3/s | 231 nM | -9.1 kcal/mol | 3.8 10^4/M/s |
| CC(=O)N[C@@H](CCC(N)=O)C(=O)N[C@@H](CC1CCCCC1)C(=O)N(C)[C@@H](CC(=O)O)C(=O)N[C@@H](CC(C)C)C(=O)N1CCC[C@H]1C(=O)N[C@@H](CC(C)C)C(=O)O (Ac-Q[Cha][NMeD]LPL-OH) | 2.3 10^-2/s | 263 nM | -9 kcal/mol | 1 10^5/M/s |
| CC(=O)N[C@@H](CCC(N)=O)C(=O)N(C)[C@@H](CC1CCCCC1)C(=O)N[C@@H](CC(=O)O)C(=O)N[C@@H](CC(C)C)C(=O)N[C@@H](Cc1ccccc1)C(=O)O (Ac-Q[NMeCha]DLF-OH) | – | > 1000 nM | -6 kcal/mol | – |
| CC(C)C[C@H](NC(=O)[C@H](CC(=O)O)N(C)C(=O)[C@H](CC1CCCCC1)NC(=O)[C@H](CCC(N)=O)NC(=O)/C=C/c1cccnc1)C(=O)N1[C@H](C(=O)N[C@@H](Cc2ccccc2)C(=O)O)C[C@@H]2CCCC[C@@H]21 ({Acryloyl(3-(3-pyridyl),E)}-Q[Cha][NMeD]L[Oic]F-OH) | 5.5 10^-3/s | 118 nM | -9.5 kcal/mol | 4.7 10^4/M/s |
| CC(C)C[C@H](NC(=O)[C@H](CC(=O)O)NC(=O)[C@H](CC1CCCCC1)NC(=O)[C@H](CCC(N)=O)NC(=O)CNCc1ccco1)C(=O)N[C@@H](Cc1ccccc1)C(=O)O (H-[NFurfurylGly]Q[Cha]DLF-OH) | 8.6 10^-3/s | 171 nM | -9.2 kcal/mol | 4.8 10^4/M/s |
| CC(C)C[C@H](NC(=O)[C@H](CC(=O)O)NC(=O)[C@H](CC1CCCCC1)NC(=O)[C@H](CCC(N)=O)NC(=O)CNCCCn1ccnc1)C(=O)N[C@@H](Cc1ccccc1)C(=O)O (H-[N(3-imidazol-1-ylpropyl)Gly]Q[Cha]DLF-OH) | 1.1 10^-2/s | 312 nM | -8.9 kcal/mol | 4.2 10^4/M/s |
| CC(=O)N[C@@H](CCC(N)=O)C(=O)N[C@@H](CC1CCCCC1)C(=O)N[C@@H](CC(=O)O)C(=O)N[C@@H](CC(C)C)C(=O)NCC(=O)N[C@@H](Cc1ccccc1)C(=O)O (Ac-Q[Cha]DLGF-OH) | 1.1 10^-2/s | 313 nM | -8.9 kcal/mol | 3.2 10^4/M/s |
| CC(C)C[C@H](NC(=O)[C@H](CC(=O)O)NC(=O)[C@H](CC1CCCCC1)NC(=O)[C@H](CCC(N)=O)NC(=O)/C=C/c1ccc(F)cc1)C(=O)N[C@@H](Cc1ccccc1)C(=O)O ({Cinnamoyl(4-F)}-Q[Cha]DLF-OH) | 6.3 10^-3/s | 144 nM | -9.3 kcal/mol | 4.6 10^4/M/s |
| CC(C)C[C@H](NC(=O)[C@H](CC(=O)O)NC(=O)[C@H](CC1CCCCC1)NC(=O)[C@H](CCC(N)=O)NC(=O)CNCCCN1CCOCC1)C(=O)N[C@@H](Cc1ccccc1)C(=O)O (H-[Gly(N-3-morpholinopropyl)]Q[Cha]DLF-OH) | 1.4 10^-2/s | 796 nM | -8.3 kcal/mol | 1.8 10^4/M/s |
| CC(C)C[C@H](NC(=O)[C@H](CC(=O)O)NC(=O)[C@H](CC1CCCCC1)NC(=O)[C@H](CCC(N)=O)NC(=O)CNCc1ccccn1)C(=O)N[C@@H](Cc1ccccc1)C(=O)O (H-[X2]Q[Cha]DLF-OH) | 5.7 10^-3/s | 172 nM | -9.2 kcal/mol | 3.4 10^4/M/s |
| CC(C)C[C@H](NC(=O)[C@H](CC(=O)O)NC(=O)[C@H](CC1CCCCC1)NC(=O)[C@H](CCC(N)=O)NC(=O)C/N=C(\N(C)C)N1CCOCC1)C(=O)N[C@@H](Cc1ccccc1)C(=O)O (X3-Q[Cha]DLF-OH) | 1 10^-2/s | 276 nM | -9 kcal/mol | 3.4 10^4/M/s |
